Laboratory results from patent US8729033B2, “Therapeutic, dietary or cosmetic use of compounds with specific anti-apoptotic activity toward caspase-3, and compositions containing these compounds” (Giuliani S.p.A., priority 2008, dated 2014).

Molecular target: T1, caspase-3 (Homo sapiens, UniProt P42574)
T1 construct: host or cells: HFDPC-c cells (follicle dermal papilla cells)
T1 sequence (P42574 29-175 limits assumed): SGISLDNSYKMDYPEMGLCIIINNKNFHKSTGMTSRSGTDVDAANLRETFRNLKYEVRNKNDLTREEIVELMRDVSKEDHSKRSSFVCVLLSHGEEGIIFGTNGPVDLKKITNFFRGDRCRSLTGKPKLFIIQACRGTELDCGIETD
T1 sequence (P42574 176-277 limits assumed): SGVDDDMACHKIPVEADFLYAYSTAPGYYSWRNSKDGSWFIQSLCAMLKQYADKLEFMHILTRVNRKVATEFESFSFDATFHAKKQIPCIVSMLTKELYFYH
Assay: Caspase-3 activity (ApoTarget Caspase-3/CPP32 colorimetric test, DEVD-pNA) in HFDPC-c cells with Staurosporine-induced apoptosis
Type: cell-based
Conditions: for % Inhibition of caspase activity / % Caspase-3 activity: Staurosporine 1 μM, 24 h, number in label = concentration [μM] per Table A; for % Inhibition of caspase activity: ST alone = 0%; for % Caspase-3 activity: related to 100% activity for 1 μM Staurosporine
Description: The activity of caspase-3 has been assessed by using the colorimetric test ApoTarget™Caspase-3/CPP32 with DEVD-pNA as the substrate (BioSource International, Camarillo, Calif.). DEVD-pNA consists of a chromophore group (p-nitroanilide (p-NA) and a synthetic tetrapeptide (DEVD-Asp-Glu-Val-Asp) that represents the consensus sequence for the proteolytic cut catalyzed by caspase-3. The test was carried out by following the specifications indicated by the manufacturer in detail, using an equal amount of total protein (200 μg) for every sample.
Every sample was tested in duplicate. The activity was assessed by measuring the absorbance at 405 nm (in the graphics, ABS 405 nm) with an automatic spectrometer for 96-well plates (MPT Reader DV990 BVG) that carries out a double reading for every well.
Cellular lysis is a technique applied to extract all of the proteins in the cultured cells to be analyzed. Various lysis protocols exist: the one used in the experimental tests described here consists of the use of a highly denaturing buffer (lysis buffer, provided within the kit for the test of the caspase-3 activity). After incubation with the various active ingredients, the lysis buffer is placed onto the cell plates, a scraper is then used directly on the layer of cells to help collect the largest quantity possible. The protein extraction is then improved with incubation on ice (4° C.) for 10 minutes. The cellular debris are precipitated with centrifugation at 10,000×g for 1 minute. The lysates are retrieved and frozen at −80° C.
The activity of caspase-3 was assessed by using the colorimetric assay ApoTarget™Caspase-3/CPP32, and the concentration of the protein was assessed by using the Lowry-Ciocalteau method and a BSA standard as described above.
The incubation was also maintained for 24 hours in this case.
At the end of the incubation the plates in which the cells were cultivated were laid out on a bed of ice, washed once in cold PBS and incubated in the lysis buffer. After the lysis, the protein assay and the caspase-3 activity test was carried out.

| SMILES | induction of apoptosis (caspase-3 activity) (1 μM, 24-hour incubation, FIG. 1) | % Inhibition of caspase activity | % Caspase-3 activity | % Inhibition of caspase activity (listed as R20) | % Caspase-3 activity (listed as R20) | % Inhibition of caspase activity (listed as Z4) | % Caspase-3 activity (listed as Z4) |
| --- | --- | --- | --- | --- | --- | --- | --- |
| CN[C@@H]1C[C@H]2O[C@@](C)([C@@H]1OC)n1c3ccccc3c3c4c(c5c6ccccc6n2c5c31)C(=O)NC4 [Staurosporine, reference compound] | increase in caspase-3 activity | – | – | – | – | – | – |
| Cl.Cl.Cl.NCCCCNCCCN [Example S0.1, Spermidine trihydrochloride] | – | 21.64% | 78.36% | – | – | – | – |
| C[C@@H]1O[C@@H](OC[C@H]2O[C@@H](Oc3c(-c4ccc(O)c(O)c4)oc4cc(O)cc(O)c4c3=O)[C@H](O)[C@@H](O)[C@@H]2O)[C@H](O)[C@H](O)[C@H]1O [Example R2, Rutin] | – | 32.10% | 67.90% | 46.27% | 53.73% | – | – |
| CC1=C(/C=C/C(C)=C/C=C/C(C)=C/C=C/C=C(C)/C=C/C=C(C)/C=C/C2=C(C)C[C@@H](O)CC2(C)C)C(C)(C)C[C@H](O)C1 [Example Z0.4, Zeaxanthin] | – | 29.00% | 71.00% | – | – | 13.20% | 86.80% |
